Reference: US12125561B2, “Determination of JAK-STAT3 pathway activity using unique combination of target genes” (InnoSIGN B.V., priority 2017, dated 2024)

Tests used:
Assay type in all cases: cell-based
[1] = system: JAK-STAT3 cellular signaling pathway in Sez-4 cell line (cutaneous T-cell lymphoma); test: JAK-STAT3 pathway activity prediction, blood model, data set GSE8685; conditions: cells starved of IL-2 for 16 hours, then IL-2 (200 U) resp. IL-15 (20 ng/mL); FIG. 16
Experimental: A Sez-4 cell line which was derived from a cutaneous T-cell lymphoma (data set GSE8685). […] IL-15 (20 ng/mL).

[2] = system: JAK-STAT3 cellular signaling pathway in epithelial cells from HaCaT cell lines; test: JAK-STAT3 pathway activity prediction, lung model, data set GSE32975; conditions: EGF vs unstimulated control; gefitinib samples in group 6 and group 7; FIG. 11
Source text: Epithelial cells from HaCaT cell lines were stimulated with epidermal growth factor (EGF) in data set GSE32975. Each group represents one replica from the cell line.

[3] = system: JAK-STAT3 cellular signaling pathway in Ishikawa H cells (derived endometrial carcinomas); test: JAK-STAT3 pathway activity prediction, lung model, data set GSE20854; conditions: FIG. 12
Experimental: Ishikawa H cells (derived endometrial carcinomas) were dosed with either EGF (epidermal growth factor) or Iressa (gefitinib) for 12 or 24 hours in data set GSE20854.

[4] = system: JAK-STAT3 cellular signaling pathway in EGFR mutant cells of lung cancer; test: JAK-STAT3 pathway activity, lung Bayesian network model, calibration on data set GSE57156; conditions: calibration samples, group 1; DMSO-treated cells considered active; FIG. 9
[5] = system: JAK-STAT3 cellular signaling pathway in PC9 NSCLC cells; test: JAK-STAT3 pathway activity prediction, lung model, data set GSE67051, PC9; conditions: PC 9, treated for 8 days, group 1 vs group 2; FIG. 13
[6] = system: JAK-STAT3 cellular signaling pathway in tamoxifen initiated, transformation inducible, breast cancer model system; test: JAK-STAT3 pathway activity prediction, lung model, data set GSE64536; conditions: FIG. 15
[7] = dosed for 12 hours, compared to undosed samples harvested at 12 hours
[8] = dosed for 24 hours, compared to undosed samples harvested at 24 hours

Q: Which “predicted JAK-STAT3 pathway status compared to the control group” value [1] does the source give for “IL-15: cytokine added to IL-2 starved Sez-4 cells” here?
A: active

Q: Which “predicted STAT3 pathway activity (odds that the TF element is present)” value (from here on “predicted STAT3 pathway activity”) [2] does the source give for `COc1cc2ncnc(Nc3ccc(F)c(Cl)c3)c2cc1OCCCN1CCOCC1` [gefitinib] here?
A: decreased STAT3 pathway activity

Q: And the “predicted STAT3 pathway activity” value [3, 7]?
A: decreased STAT3 pathway activity

Q: What about the “predicted STAT3 pathway activity” value [3, 8] of the same molecule?
A: decreased STAT3 pathway activity

Q: How did the “JAK-STAT3 pathway status of treated cells (odds that the TF element is present)” value [4] turn out when `C#Cc1cccc(Nc2ncnc3cc(OCCOC)c(OCCOC)cc23)c1` [erlotinib] was run?
A: JAK-STAT3 inactive

Q: What about the “predicted STAT3 activity of DMSO-treated cells compared to erlotinib-treated cells” value [5] of the same molecule?
A: higher

Q: For `CC/C(=C(\c1ccccc1)c1ccc(OCCN(C)C)cc1)c1ccccc1` [tamoxifen], which “predicted JAK-STAT3 activity of EtOH-treated cells compared to cells initiated with tamoxifen” value ([6]; 4 hours, group 1 vs group 3) is on record?
A: higher

Q: And the “predicted JAK-STAT3 activity of EtOH-treated cells compared to cells initiated with tamoxifen” value ([6]; 24 hours, group 2 vs group 4)?
A: higher

Q: With “epidermal growth factor (NSDSECPLSHDGYCLHDGVCMYIEALDKYACNCVVGYIGERCQYRDLKWWELR; Epidermal growth factor; UniProt P01133 971-1023, looked up) [EGF, epidermal growth factor (EGF)]” as the molecule, how does the “predicted STAT3 pathway activity” value [2] read?
A: higher STAT3 activity

Q: What about the “predicted STAT3 pathway activity” value [3, 7] of the same molecule?
A: higher STAT3 activity

Q: And the “predicted STAT3 pathway activity” value [3, 8]?
A: higher STAT3 activity
